Assay results reported in patent US20250121099A1, “CLOSO-DODECAIODODECABORATE COMPLEXES AND METHODS OF USE FOR SAME” (The Regents of the University of California, priority 2022, published 2025).
“Also recorded” adds a separate entry of the source. Like-named read-outs stand apart in the source and are kept apart here.

Tests used:
[1] = cited from earlier work
[2] = Stability of Na2B12I12: human RBCs (11B NMR); assay type: in vitro ADME; conditions: 24-hour incubation at room temperature with suspension of human RBCs
Description: (§1) General methods. Na2B12I12 was obtained from Katchem, γ-cyclodextrin (γ-CD) was obtained from Combi-Blocks, 2-hydroxypropyl-γ-cyclodextrin (HP-γ-CD; 0.6 functionalized, average Mw=1580 Da) was obtained from Sigma-Aldrich, phosphate-buffered saline (PBS) was obtained from Fisher Scientific. The reagents were used as received. D2O was obtained from Cambridge Isotopes. Washed single-donor human red blood cells (RBCs) were obtained from Innovative Research. These are RBCs that have been separated from type 0 positive whole blood and resuspended in Alsever's Solution. Defibrinated bovine blood was obtained from HemoStat Laboratories. All experiments were performed under ambient conditions. NMR spectra were collected using a Bruker Avance III HD 500 spectrometer equipped with a multinuclear Smart Probe. The frequencies of the ^1H and ^11B NMR signals are reported in ppm as chemical shifts from TMS and BF3·Et2O, respectively. Electronic absorption spectra were recorded on VWR UV-6300PC double beam spectrophotometer. […] Each sample was spiked with D2O and analyzed by ^11B NMR spectroscopy. […] The absorbance of this solution was measured from 700 to 350 nm. The subsequent samples were then measured in turn. […] The absorbance corresponding to 100% lysis was confirmed by adding a 10 μL aliquot of freshly resuspended RBCs to 250 μL of hemolysis buffer (0.15 M NH4Cl and 10 mM KHCO3). […]

[3] = Stability of Na2B12I12: refluxing PBS (11B NMR); assay type: physicochemical; conditions: refluxing in PBS pH 7.4 (100° C.) for 1 hour
Description: as §1

[4] = system: human red blood cells (RBCs); assay: Hemolytic activity of Na2B12I12 (Hb release from RBCs); assay type: cell-based
Description: as §1, with “spectrophotometer. Stability of Na2B12I12: refluxing PBS. A 500 μL aliquot of a 10 mM solution of Na2B12I12 in PBS (pH 7.4) was placed in an oil bath pre-heated to 100° C. After incubating in this bath for 1 h, the sample was removed, cooled to room temperature, and spiked with 50 μL D2O prior to acquiring a ^11B NMR spectrum. Stability of Na2B12I12: human RBCs. A 275 μL aliquot of a 20 mM solution of Na2B12I12 in PBS (pH 7.4) was added to a 225 μL suspension of human RBCs. The mixture was allowed to stand at room temperature for 24 h. It was then spiked with 50 μL D2O prior to acquiring a ^11B NMR spectrum. […] Stability of Na2B12I12: bovine serum. A 1 mL aliquot of defibrinated bovine blood was centrifuged for 15 s at 15,850×g. A 225 μL aliquot of the serum supernatant was combined with a 275 μL aliquot of a 20 mM solution of Na2B12I12 in PBS (pH 7.4). The mixture was allowed to stand at room temperature for 24 h. It was then spiked with 50 μL D2O prior to acquiring a ^11B NMR spectrum. Stability of Na2B12I12: bovine blood. A 225 μL aliquot of defibrinated bovine blood was combined with a 275 μL aliquot of a 20 mM solution of Na2B12I12 in PBS (pH 7.4). The mixture was allowed to stand at room temperature for 24 h. It was then spiked with 50 μL D2O prior to acquiring a ^11B NMR spectrum. Job plot of HP-γ-CD and Na2B12I12. Solutions of Na2B12I12 (20 mM) and […] (20 mM) were prepared in PBS (pH 7.4).” for “spectrophotometer.”

[5] = Stability of Na2B12I12: bovine blood (11B NMR); assay type: in vitro ADME; conditions: 24-hour incubation at room temperature with defibrinated bovine blood
Description: as §1

[6] = Stability of Na2B12I12: bovine serum (11B NMR); assay type: in vitro ADME; conditions: 24-hour incubation at room temperature with bovine serum
Description: as §1

[7] = system: cats; conditions: cited from earlier work
[8] = system: mice; conditions: cited from earlier work

## closo-dodecaiodododecaborate [B12I12^2−]
[1]; heating to 85° C. in 5M NaOH
  chemical stability: unchanged
[1]; heating to 150° C. in H2SO4
  chemical stability: unchanged
[1]; treatment with Cl2 gas
  chemical stability: unchanged

## closo-dodecaiodododecaborate sodium [Na2B12I12]
[2]
  stability (new 11B NMR signals): no additional signals appear; also recorded: absence of new signals
[3]
  stability (new 11B NMR signals): lack of new ^11B NMR signals
[4]; 100 mM Na2B12I12, no cyclodextrin, human RBCs
  hemolysis: rapid hemolysis; also recorded: complete hemolysis
[4]; Na2B12I12 alone
  concentrations at which hemolysis is not induced: below 6 mM
[4]; PBS
  concentration of PBS solutions that induce hemolysis: greater than 50 mM
[4]; human RBCs in PBS pH 7.4, 10 s exposure, three replicates, read-out: IC50 (proportion of RBCs lysed, absorption of supernatant at 413 nm, logistic regression) (converted)
  IC50: 66.3 mM
[5]
  stability (new 11B NMR signals): no additional signals appear; also recorded: absence of new signals
[6]
  stability (new 11B NMR signals): no additional signals appear; also recorded: absence of new signals
[7]
  toxicity: toxic
[8]
  toxicity: toxic
